We go through two compounds from US9023789B2, “Amylin analogs and pharmaceutical compositions thereof” (Novo Nordisk A/S, priority 2012, dated 2015).

Each structure is given as a SMILES string. Converted amounts (≈) assume the structure as drawn. Where two headings read alike, the source gives them in different places. Numbered stars: 1 amine (or outer) side, 2 acyl side, 3 side chain; on linkers, the order of the positions; unused ones are H or OH. Bridge positions count the residues as written; N and C are the ends. Peptide text beside a SMILES is read from it. * marks the point of attachment. C20 diacid = O=C(O)CCCCCCCCCCCCCCCCCCC(=O)*; γGlu = O=C(O)[C@H](CCC(=O)[*:2])N[*:1]

A short description of data set [1]: ASSAY (IV) determination of solubility. It counts as physicochemical. In a few lines: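 Polypeptide in water at […] mixed 1:1 with 100 mM buffers of pH 3.0-8.0 (glycylglycine pH 3-5, bistrispropane pH 6-8). Held 18 h at room temperature, then centrifuged; concentration remaining in solution measured by UPLC.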
Data set [2] is described as follows: ASSAY (III) ThT fibrillation assay for physical stability. The class given is physicochemical. In a few lines:
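Formulations with 1 μM ThT, pH adjusted as required, incubated at 37 °C with 960 rpm orbital shaking; fluorescence (ex 444/em 485 nm) read every 20 min. Fibrillation reported as mean ThT fluorescence ± SD of 4–8 replicates at time points; polypeptide concentration measured by reverse-phase HPLC before and after, post-centrifugation.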

The mark [3] stands for this setting: bistrispropane buffer, pH 6.5, read-out: Solubility pH 6.5 Concentration.
The mark [4] stands for this setting: bistrispropane buffer, pH 7.5, read-out: Solubility pH 7.5 Concentration.
[5] abbreviates: bistrispropane buffer, pH 6.0, read-out: Solubility pH 6.0 Concentration.
The mark [6] stands for this setting: bistrispropane buffer, pH 7.0, read-out: Solubility pH 7.0 Concentration.
[7] abbreviates: bistrispropane buffer, pH 8.0, read-out: Solubility pH 8.0 Concentration.
Setting [8] is: glycylglycine buffer, pH 3.0, read-out: Solubility pH 3.0 Concentration.
The mark [9] stands for this setting: glycylglycine buffer, pH 4.0, read-out: Solubility pH 4.0 Concentration.
[10] abbreviates: glycylglycine buffer, pH 5.0, read-out: Solubility pH 5.0 Concentration.

Consider `CC[C@H](C)[C@H](NC(=O)[C@H](C)NC(=O)CNC(=O)[C@H](Cc1ccccc1)NC(=O)[C@H](CC(N)=O)NC(=O)[C@@H]1CCCN1C(=O)[C@H](CO)NC(=O)[C@H](CO)NC(=O)[C@H](Cc1c[nH]cn1)NC(=O)[C@H](CCCNC(=N)N)NC(=O)[C@H](CC(C)C)NC(=O)[C@H](Cc1ccccc1)NC(=O)[C@H](CCC(=O)O)NC(=O)[C@H](C)NC(=O)[C@H](CC(C)C)NC(=O)[C@H](CCCNC(=N)N)NC(=O)[C@H](CCC(N)=O)NC(=O)[C@@H](NC(=O)[C@H](C)NC(=O)[C@@H]1CSSC[C@H](NC(=O)[C@H](CCCCN)NC(=O)CC[C@H](NC(=O)CCCCCCCCCCCCCCCCCCC(=O)O)C(=O)O)C(=O)N[C@@H](CC(N)=O)C(=O)N[C@@H]([C@@H](C)O)C(=O)N[C@@H](C)C(=O)N[C@@H]([C@@H](C)O)C(=O)N1)[C@@H](C)O)C(=O)N1CCC[C@H]1C(=O)N[C@@H](CO)C(=O)N[C@@H](CO)C(=O)N[C@H](C(=O)N[C@@H](CC(N)=O)C(=O)N[C@H](C(=O)NCC(=O)N[C@@H](CO)C(=O)N[C@@H](CC(=O)O)C(=O)N[C@H](C(=O)N1CCC[C@H]1C(N)=O)[C@@H](C)O)C(C)C)[C@@H](C)O` [Example 11] ({C20 diacid-γGlu}-KCNTATCATQRLAEFLRHSSPNFGAIPSSTNVGSDTP-NH2; disulfide 2-7 (inferred)), for which the solubility at 18 h in data set [1] (setting [3]), in data set [1] (setting [4]), in data set [1] (setting [5]), in data set [1] (setting [6]), in data set [1] (setting [7]) and in data set [1] (setting [8]) was at least 200 µM throughout. Moreover, the solubility at 18 h in data set [1] (setting [9]) and in data set [1] (setting [10]) was at least 200 µM throughout. The “ThT pH 4.0 lag time (h)” value in data set [2] amounted to 45 h.

On to `CC[C@H](C)[C@H](NC(=O)[C@H](C)NC(=O)CNC(=O)[C@H](Cc1ccccc1)NC(=O)[C@H](CC(N)=O)NC(=O)[C@@H]1CCCN1C(=O)[C@H](CO)NC(=O)[C@H](CO)NC(=O)[C@H](Cc1c[nH]cn1)NC(=O)[C@H](CCCNC(=N)N)NC(=O)[C@H](CC(C)C)NC(=O)[C@H](Cc1ccccc1)NC(=O)[C@H](CCC(=O)O)NC(=O)[C@H](C)NC(=O)[C@H](CC(C)C)NC(=O)[C@H](CCCNC(=N)N)NC(=O)[C@H](CCC(N)=O)NC(=O)[C@@H](NC(=O)[C@H](C)NC(=O)[C@@H]1CSSC[C@H](NC(=O)[C@H](CCCCN)NC(=O)CC[C@H](NC(=O)CCCCCCCCCCCCCCCCCCC(=O)O)C(=O)O)C(=O)N[C@@H](CC(N)=O)C(=O)N[C@@H]([C@@H](C)O)C(=O)N[C@@H](C)C(=O)N[C@@H]([C@@H](C)O)C(=O)N1)[C@@H](C)O)C(=O)N1CCC[C@H]1C(=O)N[C@@H](CO)C(=O)N[C@@H](CO)C(=O)N[C@H](C(=O)N[C@@H](CC(N)=O)C(=O)N[C@H](C(=O)NCC(=O)N[C@@H](CO)C(=O)N[C@@H](CCC(=O)O)C(=O)N[C@H](C(=O)N[C@@H](Cc1ccc(O)cc1)C(N)=O)[C@@H](C)O)C(C)C)[C@@H](C)O` [Example 22] ({C20 diacid-γGlu}-KCNTATCATQRLAEFLRHSSPNFGAIPSSTNVGSETY-NH2; disulfide 2-7), for which the solubility at 18 h in data set [1] (setting [3]) was at least 200 µM; in data set [1] (setting [4]), at least 200 µM; in data set [1] (setting [5]), 195 µM (≈ 860 µg/mL); in data set [1] (setting [6]) it was at least 200 µM; in data set [1] (setting [7]), at least 200 µM; in data set [1] (setting [8]) it was at least 200 µM. Also, the solubility at 18 h in data set [1] (setting [9]) and in data set [1] (setting [10]) was at least 200 µM each time. Besides, in data set [2], the “ThT pH 4.0 lag time (h)” value amounted to 45 h.
